Read-outs that look alike come from different tables or passages of the source.
Biological target: T1, recombinant human cGAS (aa147-522) (Homo sapiens, UniProt Q8N884)
T1 construct: recombinant human cGAS (aa147-522); His6-SUMO (cleaved yes); made in house; host or cells: E. coli BL21/pLys
Test: In vitro inhibition assay of cGAS activity (ATP consumption, KinaseGlo Max)
Format: biochemical
How it was run: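 IC50 came from plotting % ATP consumption against log compound concentration, with leftover ATP detected by KinaseGlo Max chemiluminescence. Reactions ran 20 min at 37 °C with 1.5 μg/mL human cGAS (aa147-522), 6.6 μM ATP, 0.1 mM GTP and 0.01 mg/mL DNA at pH 7.5.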

[1] = Table 2, read-out: cGAS Inhibition Results IC50
[2] = Table 3, read-out: cGAS Inhibition Results IC50

T1 sequence (Q8N884 147-522): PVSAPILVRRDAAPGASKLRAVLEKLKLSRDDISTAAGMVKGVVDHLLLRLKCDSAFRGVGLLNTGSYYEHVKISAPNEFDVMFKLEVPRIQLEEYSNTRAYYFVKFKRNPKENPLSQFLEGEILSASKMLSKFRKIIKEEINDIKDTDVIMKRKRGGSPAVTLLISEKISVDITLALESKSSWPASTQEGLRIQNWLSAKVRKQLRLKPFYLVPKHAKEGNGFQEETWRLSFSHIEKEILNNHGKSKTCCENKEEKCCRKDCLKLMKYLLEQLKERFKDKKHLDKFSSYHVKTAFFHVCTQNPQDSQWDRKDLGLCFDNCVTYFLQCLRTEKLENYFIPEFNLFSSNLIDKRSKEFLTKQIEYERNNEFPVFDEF

SMILES | IC50 [1] [nM] | IC50 [2] [nM]
OCC1CN(c2cc(-n3ccnc3)c3ccc(Cl)c(Cl)c3n2)CCO1 (stereo not shown) [I-98] | 2000 to 30000 | 
CN(CCNS(=O)(=O)c1cncn1C)c1cc(-n2ccnc2)c2ccc(Cl)cc2n1 [I-232] | 2000 to 30000 | 
Cc1cc(N2CCCC(O)CC2)c2ccc(Cl)c(Cl)c2n1 (stereo not shown) [I-311] | > 30000 | 
Clc1ccc2c(-n3ccnc3)cc(N3CCNCC3)nc2c1 [I-76, 7-chloro-4-(1H-imidazol-1-yl)-2-(piperazin-1-yl)quinoline] | 2000 to 30000 | 
Oc1cccc(-c2cc(-n3ccnc3)c3ccc(Cl)c(Cl)c3n2)c1 [I-43] | < 2000 | 
CC(C)[C@@H](CC(=O)O)Nc1cc(-n2ccnc2)c2ccc(Cl)c(Cl)c2n1 [I-187] | 2000 to 30000 | 
CC(=O)N1CCOC(CNc2cc(-c3cn[nH]c3)c3ccc(Cl)c(Cl)c3n2)C1 (stereo not shown) [I-221, 1-(2-(((7,8-dichloro-4-(1H-pyrazol-4-yl)quinolin-2-yl)amino)methyl)morpholino)ethan-1-one] | < 2000 | 
Clc1ccc2c(-c3cn[nH]c3)cc(N(CCN3CCOCC3)Cc3ccccc3)nc2c1Cl [I-216] | 2000 to 30000 | 
O=C(O)[C@@H]1CN(c2cc(-c3cn[nH]c3)c3ccc(Cl)c(Cl)c3n2)CCO1 [I-327] | < 2000 | 
OCC1COCCN1c1cc(-n2ccnc2)c2ccc(Cl)c(Cl)c2n1 (stereo not shown) [I-97] | 2000 to 30000 | 
Clc1ccc2c(-n3ccnc3)cc(N3CCOCC3)nc2c1Cl [I-95] | 2000 to 30000 | 
O=C(O)c1ccc(Cl)c(-c2cc(-n3ccnc3)c3ccc(Cl)cc3n2)c1 [I-31] | > 30000 | 
O=C(O)CNc1cc(-c2cn[nH]c2)nc2c(Cl)cc(Cl)cc12 [I-288] | < 2000 | 
CN(CCNC(=O)c1ccccc1)c1cc(-n2ccnc2)c2ccc(Cl)cc2n1 [I-237] | 2000 to 30000 | 
COc1ccc(C(=O)O)cc1-c1cc(-n2ccnc2)c2ccc(Cl)cc2n1 [I-30] | 2000 to 30000 | 
Oc1cc(OC(F)(F)F)cc(-c2cc(-n3ccnc3)c3ccc(Cl)c(Cl)c3n2)c1 [I-44] | > 30000 | 
Nc1ccc(-c2cc(-n3ccnc3)c3ccc(Cl)cc3n2)cc1C(=O)O [I-20] | < 2000 | 
CC(C)[C@H](NC(=O)C[C@@H]1CCCN1c1cc(-n2ccnc2)c2ccc(Cl)c(Cl)c2n1)C(=O)O [I-338] | < 2000 | 
CN(CCO[PH](=O)O)c1cc(-n2ccnc2)c2ccc(Cl)c(Cl)c2n1 [I-255] | < 2000 | 
O=C1CN(c2cc(-n3ccnc3)c3ccc(Cl)cc3n2)CC(C(=O)O)N1 (stereo not shown) [I-84] | 2000 to 30000 | 
Oc1cc(-c2cc(-n3ccnc3)c3ccc(Cl)cc3n2)ccn1 [I-59] | > 30000 | 
O=C(O)C1CN(c2cc(-n3ccnc3)c3ccc(Cl)c(Cl)c3n2)CCO1 (stereo not shown) [I-91] | < 2000 | 

SMILES | IC50 [1] [nM] | IC50 [2] [nM]
O=C(O)[C@@H]1C[C@@H](Oc2ccccc2)CN1c1cc(-c2cn[nH]c2)c2ccc(Cl)c(Cl)c2n1 [I-361] | 2000 to 30000 | 
O=C(O)c1cccc(-c2cc(-n3ccnc3)c3ccc(Cl)cc3n2)c1 [I-6, 3-(7-Chloro-4-(1H-imidazol-1-yl)quinolin-2-yl)benzoic acid] | < 2000 | 
COC(=O)C1CCCN(c2cc(-n3ccnc3)c3ccc(Cl)cc3n2)C1 (stereo not shown) [I-126] | 2000 to 30000 | 
Clc1ccc2c(-n3ccnc3)cc(OCCN3CCOCC3)nc2c1 [I-279] | > 30000 | 
COC(=O)c1cncc(-c2cc(-n3ccnc3)c3ccc(Cl)cc3n2)c1 [I-34] | > 30000 | 
Clc1ccc2c(-c3ccncc3)cc(-c3ccccc3)nc2c1 [I-70] | > 30000 | 
CC(=O)O[C@H]1CCN(c2cc(-n3ccnc3)c3ccc(Cl)c(Cl)c3n2)[C@@H]1C(=O)O [I-643, (2S,3S)-3-acetoxy-1-(7,8-dichloro-4-(1H-imidazol-1-yl)quinolin-2-yl)pyrrolidine-2-carboxylic acid] |  | < 2000
CNS(=O)(=O)CCN(C)c1cc(-n2ccnc2)c2ccc(Cl)c(Cl)c2n1 [I-205] | < 2000 | 
CN(CCS(N)(=O)=O)c1cc(-n2ccnc2)c2ccc(Cl)c(Cl)c2n1 [I-204] | < 2000 | 
O=C(O)CNc1cc(-c2cn[nH]c2)nc2cc(Cl)cc(Cl)c12 [I-300] | > 30000 | 
O=C(O)C1CN(c2cc(-n3ccnc3)c3ccc(Cl)cc3n2)CCS1 (stereo not shown) [I-89] | 2000 to 30000 | 
C[C@@H](Nc1cc(-c2cn[nH]c2)c2ccc(Cl)c(Cl)c2n1)C(=O)O [I-180] | 2000 to 30000 | 
O[C@@H]1CCCN(c2cc(-n3ccnc3)c3ccc(Cl)c(Cl)c3n2)C1 [I-134] | 2000 to 30000 | 
O=C(NO)[C@@H]1CCCN(c2cc(-n3ccnc3)c3ccc(Cl)cc3n2)C1 [I-137, (R)-1-(7-chloro-4-(1H-imidazol-1-yl)quinolin-2-yl)-N-hydroxypiperidine-3-carboxamide] | 2000 to 30000 | 
C[C@H](CS(N)(=O)=O)Nc1cc(-n2ccnc2)c2ccc(Cl)c(Cl)c2n1 [I-207] | < 2000 | 
OC[C@H]1CCCN1c1cc(-n2ccnc2)c2ccc(Cl)c(Cl)c2n1 [I-141] | < 2000 | 
O=C(O)[C@@H]1CN(c2cc(-n3ccnc3)c3ccc(Cl)cc3n2)CC[C@H]1O [I-130] | 2000 to 30000 | 
O=C(O)c1cc(Br)cc(-c2cc(-n3ccnc3)c3ccc(Cl)cc3n2)c1 [I-27] | > 30000 | 
NS(=O)(=O)OCC1CN(c2cc(-n3ccnc3)c3ccc(Cl)c(Cl)c3n2)CCO1 (stereo not shown) [I-96] | < 2000 | 
O=C(O)[C@H]1CCCN(c2cc(-n3ccnc3)c3ccc(Cl)cc3n2)C1 [I-331] | 2000 to 30000 | 
NS(=O)(=O)OCC1CCCN(c2cc(-n3ccnc3)c3ccc(Cl)c(Cl)c3n2)C1 (stereo not shown) [I-118] | < 2000 | 

Continued, values first:

IC50 [1] [nM] | IC50 [2] [nM] | SMILES
 | < 2000 | C[C@@H]1C[C@@H](C(=O)O)N(c2cc(-n3ccnc3)c3ccc(Cl)c(Cl)c3n2)C1 [I-481]
 | 2000 to 30000 | CC(C)(C)OC(=O)[C@H]1CCCN1C(=O)C[C@@H]1CCCN1c1cc(-n2ccnc2)c2ccc(Cl)c(Cl)c2n1 [I-522]
2000 to 30000 |  | O=C(O)C1CCCC(Nc2cc(-n3ccnc3)c3ccc(Cl)cc3n2)C1 (stereo not shown) [I-366]
> 30000 |  | O=C(O)[C@@H]1C[C@@H](Oc2ccccc2)CN1c1cc(-n2ccnc2)c2ccc(Cl)c(Cl)c2n1 [I-362]
2000 to 30000 |  | COC(=O)[C@@H]1C[C@@H](O)CN1c1cc(-c2cn[nH]c2)c2ccc(Cl)c(Cl)c2n1 [I-434]
> 30000 |  | Cn1cc(-c2cc(NCC(=O)O)c3ccc(Cl)c(Cl)c3n2)cn1 [I-425]
 | 2000 to 30000 | COC(=O)[C@H]1[C@H](O)CCN1c1cc(-n2ccnc2)c2ccc(Cl)c(Cl)c2n1 [I-497]
 | < 2000 | O=C(O)[C@@H]1C[C@@H]2CCC[C@@H]2N1c1cc(-n2ccnc2)c2ccc(Cl)c(Cl)c2n1 [I-515]
 | < 2000 | CN(CCC(=O)N1CCC(S(N)(=O)=O)C1)c1cc(-n2ccnc2)c2ccc(Cl)c(Cl)c2n1 (stereo not shown) [I-566]
< 2000 |  | Clc1ccc2c(-n3ccnc3)cc(-c3cn[nH]c3)nc2c1Cl [I-378]
 | < 2000 | O=C(O)CCOC[C@@H]1CCC(=O)N1c1cc(-n2ccnc2)c2ccc(Cl)c(Cl)c2n1 [I-812, (S)-3-((1-(7,8-dichloro-4-(1H-imidazol-1-yl)quinolin-2-yl)-5-oxopyrrolidin-2-yl)methoxy)propanoic acid]
 | > 30000 | O=C(O)CCOC[C@@H]1CCCN1c1cc(-c2cc[nH]n2)c2ccc(Cl)c(Cl)c2n1 [I-823]
 | 2000 to 30000 | COc1cccc2c(-c3cn[nH]c3)cc(N3CCC[C@H]3COCCC(=O)O)nc12 [I-859]
 | < 2000 | O=C(O)[C@H]1[C@@H](O)CCN1c1cc(-n2ccnc2)c2ccc(Cl)c(Cl)c2n1 [I-499]
< 2000 |  | N#CCCO[PH](=O)OCC1CCCN(c2cc(-c3cn[nH]c3)c3ccc(Cl)c(Cl)c3n2)C1 (stereo not shown) [I-396]
 | < 2000 | O=C(O)CO[C@H]1CCN(c2cc(-n3ccnc3)c3ccc(Cl)c(Cl)c3n2)C1 [I-770]
 | < 2000 | O=C(O)[C@@H]1CC[C@H](c2ccccc2)N1c1cc(-n2ccnc2)c2ccc(Cl)c(Cl)c2n1 [I-487]

IC50 [1] [nM] | IC50 [2] [nM] | SMILES
< 2000 |  | OC[C@@H]1CN(c2cc(-c3cn[nH]c3)c3ccc(Cl)c(Cl)c3n2)CCO1 [I-372]
2000 to 30000 |  | CNC(=O)[C@@H]1CCCN1c1cc(-n2ccnc2)c2ccc(Cl)c(Cl)c2n1 [I-450]
 | 2000 to 30000 | CC1(C)CCN(c2cc(-n3ccnc3)c3ccc(Cl)c(Cl)c3n2)C1C(=O)O (stereo not shown) [I-483]
 | 2000 to 30000 | CC(C)[C@H](NC(=O)[C@@H]1CCCN1c1cc(-n2ccnc2)c2ccc(Cl)c(Cl)c2n1)C(=O)O [I-550]
< 2000 |  | O=C(O)/C=C/c1cc(-c2cn[nH]c2)c2ccc(Cl)c(Cl)c2n1 [I-423, 3-(7,8-dichloro-4-(1H-pyrazol-4-yl)quinolin-2-yl)acrylic acid]
 | 2000 to 30000 | COC(=O)[C@@H]1[C@H](OC)CCN1c1cc(-n2ccnc2)c2ccc(Cl)c(Cl)c2n1 [I-647]
 | > 30000 | O=C(O)CCOC[C@@H]1CCCN1c1cc(-c2ccoc2)c2ccc(Cl)c(Cl)c2n1 [I-824]
 | 2000 to 30000 | COC(=O)[C@@H]1C[C@H](O)CN1c1cc(-n2ccnc2)c2ccc(Cl)c(Cl)c2n1 [I-459]
 | 2000 to 30000 | COC(=O)[C@@H]1C[C@@H](OCCC(=O)O)CN1c1cc(-n2ccnc2)c2ccc(Cl)c(Cl)c2n1 [I-869]
 | 2000 to 30000 | O=C(C[C@@H]1CCCN1c1cc(-n2ccnc2)c2ccc(Cl)c(Cl)c2n1)NC1CCCNC1=O (stereo partly shown) [I-544]
> 30000 |  | Brc1ccc2nccc(-n3cccn3)c2c1 [I-415]
 | > 30000 | COC(=O)C12CC(CN1c1cc(-n3ccnc3)c3ccc(Cl)c(Cl)c3n1)C2 [I-579]
 | 2000 to 30000 | COC(=O)C1=CCCN1c1cc(-n2ccnc2)c2ccc(Cl)c(Cl)c2n1 [I-652, methyl 1-(7,8-dichloro-4-(1H-imidazol-1-yl)quinolin-2-yl)-4,5-dihydro-1H-pyrrole-2-carboxylate]
 | < 2000 | O=C(O)c1ccccc1S(=O)(=O)N[C@@H]1C[C@@H](C(=O)O)N(c2cc(-n3ccnc3)c3ccc(Cl)c(Cl)c3n2)C1 [I-509]
 | < 2000 | O=C(O)C[C@@H]1CCCN1C(=O)[C@@H]1CCCN1c1cc(-n2ccnc2)c2ccc(Cl)c(Cl)c2n1 [I-553]
< 2000 |  | CC(C)(C)O[C@@H]1C[C@@H](C(=O)O)N(c2cc(-c3cn[nH]c3)c3ccc(Cl)c(Cl)c3n2)C1 [I-437]
